# Results from US10166246B2, “TGR5 agonist complexes for treating diabetes and cancer” (City of Hope, priority 2014, dated 2019).
# Entries after “also recorded” stand apart in the source; their conditions may differ.
# Assays:
# TGR5 [1] = molecular target: T1, TGR5 (Homo sapiens, UniProt Q8TDU6); conditions: HEK293 cells with human TGR5, pCRE-Luc; 0.1-50 μM test concentrations
# T1 sequence (Q8TDU6 1-330): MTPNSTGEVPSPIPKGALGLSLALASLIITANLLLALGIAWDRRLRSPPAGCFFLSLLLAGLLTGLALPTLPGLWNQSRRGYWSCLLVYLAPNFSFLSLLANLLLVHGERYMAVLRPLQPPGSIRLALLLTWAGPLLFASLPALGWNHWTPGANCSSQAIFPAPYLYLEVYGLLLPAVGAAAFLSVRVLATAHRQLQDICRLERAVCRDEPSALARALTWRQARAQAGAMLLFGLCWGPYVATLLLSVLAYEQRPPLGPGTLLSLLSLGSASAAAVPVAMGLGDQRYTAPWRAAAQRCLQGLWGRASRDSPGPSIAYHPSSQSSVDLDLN
# Method: HEK293 overexpressing TGR5 cells were transfected 100 ng pCRE-luc reporter along with 10 ng pCMV-beta-galactosidase by HiPerfect (Qiagen).
# Complexes were evaluated for their ability to activate TGR5 at 0.1, 0.5, 1, 5.0, 10, 30, and 50 μM test concentrations.
# Cell Culture: HEK293 and HEK293-TGR5 overexpressing cells were cultured in high glucose Dulbecco's modified Eagle's medium (DMEM, CELLGRO®, Manassas, Va.) with L-glutamine supplemented with 10% (vol/vol) heat-inactivated fetal bovine serum (Gemini Bio-Products, West Sacramento, Calif.). TGR5-overexpressing HEK293 cells were maintained in G418-containing media until plating. Cells were plated in 24-well plates (5×10^5 cells/well) 24 h before transfection. Prior to transfection, cells were rinsed with PBS, and media was replaced with DMEM without phenol red supplemented with 10% super-stripped FBS.
# TGR5 and FXR Luciferase Assay: To evaluate TGR5 activity of compounds, cells were transfected 100 ng pCRE-luc reporter along with pCMV-galactosidase (10 ng) as an internal control for normalization of transfection efficiency. Plasmids were complexed with 2 mL of FUGENE® 6 reagent (Promega, Madison, Wis.) in OPTIMEM® (Invitrogen, Carlsbad, Calif.) and cells were transfected for 18 h. The following day, cells were treated with vehicle and appropriate ligand as indicated. […]
# db/db mice = assay: 5-week treatment of diabetic db/db mice (body weight, fasting glucose, liver and kidney weight, HbA1c); type: in vivo, mouse; conditions: for significance of the effect in body weight loss: 30 mg/kg BW (0.057 mmol), 5 weeks
# Method: FIG. 8 Effect on body weight of administration of ligand and complex administered […] for 5 weeks in db/db mice (seven per group), with vehicle controls.
# For each experiment, there were 8 groups of mice representing the different treatments. […] Eleven-week old male normal and high-fat fed C57BL/6J mice and 7-week old male B6.BKS-Lepr^db (db/db) mice (The Jackson Laboratory, Bar Harbor, Me.) were acclimatized for at least one week on a 12-hour light/dark cycle at 68-72° F., then fed either a standard (10% fat kcal) or high-fat diet containing 60 kcal % fat (Research Diets, Inc., New Brunswick, N.J.) for the duration of the study. All animals were access to their respective diets and water ad libitum. […] For each group, each mouse was given the drugs via i.p. injection, three times a week (Monday, Wednesday, Friday) for a total duration of 5 weeks. Before, and in the course of treatment, body weight, water and food consumption (by weighing before and after weights of water bottles and leftover food in individual cages) were measured 2×per week, while blood glucose measurements were conducted weekly via tail-bleeding while on physical restraint using disposable cone-shaped plastic holders (Kent Scientific). Various tissues (liver, skeletal muscles and adipose tissues) and blood (for lipid, insulin and glucose measurements), were collected and analyzed at the end of the experiment. Before termination of the study, glucose tolerance tests were performed on each mouse on the last week of treatment. For the glucose tolerance test (GTT), after an overnight fast, mice were injected intraperitoneally with glucose (2 g/kg body weight). […] Mice were euthanized by CO2 asphyxiation according to the Association for Assessment and Accreditation of Laboratory Animal Care International guidelines. The different experimental groups had at least 8 animals each.
# [2] = in vivo; cited from earlier work
# [3] = single oral dose; cited from earlier work
# TGR5 [4] = molecular target: T1, TGR5; assay: cAMP assay in HEK293 overexpressing TGR5; type: cell-based; design: expressed in transfected cells; host or cells: HEK293 overexpressing TGR5; conditions: HEK293 cells, in vitro
# Method: (§1) Data analysis to determine EC50 values was performed with GraphPad Prism software using a cAMP standard curve and sigmoidal dose-response (variable slope) equation based on dose-response curves with tested compounds.
# as §1
molecule,measurement,setting,value
Metformin-OA [DY310],potency in luciferase assays against TGR5 compared to the native TGR5 agonist,TGR5 [1],greater potency in luciferase assays than oleanolic acid
metformin-6eUDCA complex [DY306],effect on increase of HbA1c,db/db mice; db/db mice,dose dependently blocked the increase of HbA1c
same,glycemic control,db/db mice; db/db mouse model,improved glycemic control
same,significance of the effect in body weight loss,db/db mice; male db/db mice,not significant
"CN(C)C(=N)NC(=N)N [Metformin, N,N-dimethylbiguanidine]",decrease of the level of HbA1c,[2],1-2%
same,time until undetectable in blood plasma,[3],≤ 24 h
same,direct activation of TGR5 to induce cAMP formation,TGR5 [4],not a ligand for the TGR5; also recorded: did not directly activate TGR5
metformin-6eCDCA complex [DY305],significance of the effect in body weight loss,db/db mice; male db/db mice,not significant
same,effect on body weight,"db/db mice; male db/db mice, daily for 5 weeks",effective in body weight loss
